Measured values from patent US10793885B2, “Compositions and methods for making noscapine and synthesis intermediates thereof” (priority 2013, dated 2020).

Tests used:
CYP82X2 = target: T1, CYP82X2 (UniProt D5J9U8+I3PLR0); experiment: In vitro enzyme assay with yeast microsomal fractions containing CYP82X2 (CPR/82X2); type: biochemical, Papaver somniferum; conditions: yeast microsomes (CPR/82X2), extracted ion chromatograms, FIG. 13
T1 construct: the full-length coding regions of CYP82X1 and CYP82X2 were inserted into the NotI and SpeI restriction sites; FLAG; made in house; host or cells: Saccharomyces cerevisiae YPL 154C:Pep4, microsomal fraction
T1 sequence (D5J9U8+I3PLR0 with tags, fused parts or gaps): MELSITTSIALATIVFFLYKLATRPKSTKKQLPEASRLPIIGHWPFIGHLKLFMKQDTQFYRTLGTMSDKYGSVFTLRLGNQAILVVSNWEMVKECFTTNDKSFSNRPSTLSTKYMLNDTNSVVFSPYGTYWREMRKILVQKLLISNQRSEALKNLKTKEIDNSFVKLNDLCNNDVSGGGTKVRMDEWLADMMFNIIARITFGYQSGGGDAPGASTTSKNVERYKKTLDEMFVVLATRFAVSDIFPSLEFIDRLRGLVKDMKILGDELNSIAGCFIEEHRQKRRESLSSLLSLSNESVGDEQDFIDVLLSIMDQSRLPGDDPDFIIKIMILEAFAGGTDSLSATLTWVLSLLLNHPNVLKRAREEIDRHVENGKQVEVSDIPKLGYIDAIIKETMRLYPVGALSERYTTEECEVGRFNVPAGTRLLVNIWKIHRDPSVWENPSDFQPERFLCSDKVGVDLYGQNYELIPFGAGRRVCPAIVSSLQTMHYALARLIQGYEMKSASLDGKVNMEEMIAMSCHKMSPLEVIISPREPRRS
Text: (§1) The full-length coding region of CYP82X1 was amplified using cDNA derived from total stem RNA of the Bea's Choice chemotype using Takara Ex Taq DNA polymerase (Fisher Scientific, Ottawa, Canada), and using a primer 5′-[…]-3′ (SEQ ID NO: 607) and reverse primer 5′-[…]-3′ (SEQ ID NO: 608). Owing to problems with heterologous expression in yeast, CYP82X2 was synthesized with the first 60 N-terminal amino acids replaced with the first 43 N-terminal amino acids from the lettuce cytochrome P450 germacrene A oxidase Nguyen, D. T. et al. J. Biol. Chem. 285, 16588-16598 (2010). For heterologous expression of Flag-tagged CYPs in yeast (Saccharomyces cerevisiae), the full-length coding regions of CYP82X1 and CYP82X2 were inserted into the NotI and SpeI restriction sites of the dual plasmid pESC-leu2d::CPR Ro, D.-K., Ouellet, M., Paradise, E. M., Burd, H., Eng, D., Paddon, C. J., Newman, J. D., & Keesling, J. D. BMC Biotech. 8, 83 (2008) yielding pESC-Leu2d::CYP82X1/CPR and pESC-Leu2d::CYP82X2/CPR. The protease-deficient yeast strain YPL 154C:Pep4 was transformed with pESC-Leu2d::CYP82X1/CPR and pESC-Leu2d::CYP82X2/CPR. Yeast culture, microsome preparation, and immunoblot analysis were performed as described previously Dang, T.-T. T. & Facchini, P. J. J. Biol. Chem. 289, 2013-2026 (2014). For heterologous expression of CXE1, CXE2, and AT1, corresponding open reading frames were amplified using cDNA derived from total stem RNA of the Bea's Choice chemotype and cloned in-frame an N-terminal His-tag sequence in the Escherichia coli expression vector pRSETA (Invitrogen, Carlsbad, Calif.). CXE1 and CXE2 were individually inserted into the SacI and HindIII restriction sties, whereas AT1 was inserted into the KpnI and HindIII sites, of pRSETA using a primer 5′-[…]-3′ (SEQ ID NO: 609) and reverse primer 5′-[…]-3′ (SEQ ID NO: 610). […] Microsomal fractions containing recombinant CYP82X1 or CYP82X2 were detected using a-FLAG antibodies, whereas recombinant CPR was detected using α-c-Myc antibodies (FIG. 12 A). […]

CYP82X1 = target: T2, CYP82X1 (Papaver somniferum, UniProt I3V6B7); experiment: In vitro enzyme assay with yeast microsomal fractions containing CYP82X1 (CPR/82X1); type: biochemical; conditions: yeast microsomes (CPR/82X1), extracted ion chromatograms, FIG. 13
T2 construct: The full-length coding region of CYP82X1 was amplified using cDNA derived from total stem RNA of the Bea's Choice chemotype; FLAG; made in house; host or cells: Saccharomyces cerevisiae YPL 154C:Pep4, microsomal fraction
T2 sequence (I3V6B7 1-540): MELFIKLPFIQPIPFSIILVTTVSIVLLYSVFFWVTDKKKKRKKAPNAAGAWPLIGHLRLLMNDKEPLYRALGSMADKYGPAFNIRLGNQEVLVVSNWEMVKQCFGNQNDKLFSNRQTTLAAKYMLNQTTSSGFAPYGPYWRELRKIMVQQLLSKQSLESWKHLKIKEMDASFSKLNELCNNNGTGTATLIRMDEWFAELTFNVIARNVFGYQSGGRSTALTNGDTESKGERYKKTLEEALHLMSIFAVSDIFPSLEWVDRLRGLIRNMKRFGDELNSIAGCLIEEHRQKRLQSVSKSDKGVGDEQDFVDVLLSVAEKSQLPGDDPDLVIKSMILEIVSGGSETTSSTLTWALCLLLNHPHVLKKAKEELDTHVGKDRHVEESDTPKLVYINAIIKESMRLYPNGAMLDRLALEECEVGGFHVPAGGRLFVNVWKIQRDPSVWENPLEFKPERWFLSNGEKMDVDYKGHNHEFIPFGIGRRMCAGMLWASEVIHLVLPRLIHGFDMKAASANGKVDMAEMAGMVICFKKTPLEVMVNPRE
Text: as §1

CYP82Y1 = CYP82Y1 (Papaver somniferum, UniProt I3PLR1, R101S); conditions: yeast microsomes, 500 μM NADPH, pH 7.5, 30° C.
CYP82Y1, sequence (I3PLR1 whole entry R101S): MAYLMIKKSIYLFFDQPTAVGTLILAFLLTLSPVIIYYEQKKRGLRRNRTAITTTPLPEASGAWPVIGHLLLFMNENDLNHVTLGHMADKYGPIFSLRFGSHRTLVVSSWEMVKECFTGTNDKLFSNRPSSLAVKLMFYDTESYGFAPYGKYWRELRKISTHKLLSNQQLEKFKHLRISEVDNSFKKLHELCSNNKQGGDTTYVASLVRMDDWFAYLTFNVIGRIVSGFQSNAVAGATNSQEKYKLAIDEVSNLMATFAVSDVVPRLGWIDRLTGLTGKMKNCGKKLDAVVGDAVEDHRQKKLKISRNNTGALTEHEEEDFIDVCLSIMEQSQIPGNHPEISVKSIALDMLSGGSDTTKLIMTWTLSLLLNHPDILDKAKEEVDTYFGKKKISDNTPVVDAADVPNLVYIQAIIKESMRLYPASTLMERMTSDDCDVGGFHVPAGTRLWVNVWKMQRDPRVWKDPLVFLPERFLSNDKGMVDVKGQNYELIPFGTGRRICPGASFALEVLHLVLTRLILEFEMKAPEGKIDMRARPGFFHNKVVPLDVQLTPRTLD

NOS = target: T3, NOS (Papaver somniferum, UniProt I3PLR3); type: biochemical, opium poppy (Papaver somniferum); conditions: for Km: cofactor of NOS for the conversion of narcotine hemiacetal to noscapine; for acceptance as substrate / conversion by NOS: recombinant NOS, product detection by LC-MS/MS
T3 construct: His-tag (pRSETA leader) (N); made in house; host or cells: Escherichia coli Rosetta (DE3) pLysS
T3 sequence (I3PLR3 1-348): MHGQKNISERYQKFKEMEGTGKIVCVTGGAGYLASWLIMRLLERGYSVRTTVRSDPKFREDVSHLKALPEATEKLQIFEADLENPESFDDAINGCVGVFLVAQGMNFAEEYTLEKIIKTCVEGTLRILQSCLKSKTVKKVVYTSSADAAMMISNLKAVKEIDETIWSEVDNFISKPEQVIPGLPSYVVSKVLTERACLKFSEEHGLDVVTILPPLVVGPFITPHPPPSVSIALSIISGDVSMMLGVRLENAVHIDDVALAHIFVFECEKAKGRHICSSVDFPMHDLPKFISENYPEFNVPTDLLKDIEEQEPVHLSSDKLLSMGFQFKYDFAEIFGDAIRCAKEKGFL
Text: The full-length cDNA sequence of CL1327Contig1 (see: Example 2) was cloned into vector pRSETA in-frame with an N-terminal His-tag and expressed in E. coli as follows. The NOS coding region was amplified from opium poppy stem cDNA using the following primer set: 5′-[…]-3′ (SEQ ID NO: 601) and 5′-[…]-3′ (SEQ ID NO: 602). The NOS cDNA was cloned into the expression vector pRSETA (Invitrogen) at the SacI and KpnI restriction sites in frame with an N-terminal His-tag sequence. The expression construct was transformed into Escherichia coli strain Rosetta (DE3) pLysS (EMD Chemicals, Darmstadt, Germany). Expression of the recombinant gene was induced overnight with 1 mM isopropyl β-D-thiogalactoside (IPTG) at room temperature. Cells were harvested by centrifugation and sonicated in a buffer containing 50 mM sodium phosphate, pH 7.0, 300 mM NaCl, and 10 mM β-mercaptoethanol. After centrifugation at 20,000 g for 10 min, the supernatant was loaded onto Talon cobalt affinity resin (Clontech, Mountain View, Calif.). Purification was performed according to the manufacturer's instruction. The purified, recombinant protein was desalted using an Amicon centrifugal filter −30K (Millipore, Billerica, Mass.) and stored in a buffer containing 50 mM Tris-HCl, pH 8.0, 1 mM EDTA, 1 mM β-mercaptoethanol, and 10% (v/v) glycerol. Protein concentration was determined by the Bradford assay (Bio-Rad, Hercules, Calif.) using bovine serum albumin as the standard.
The purified recombinant NOS enzyme (see: Example 4) was assayed using either narcotine hemiacetal as the substrate (in the presence of either NAD^+ or NADP^+ as cofactor) for dehydrogenase activity, or with noscapine as the substrate (in the presence of NADH or NADPH as the cofactor) for reductase activity. LC-MS/MS was used to identify and quantify product formation (FIG. 7). […] LC-MS/MS and CID spec
In addition to narcotine hemiacetal and noscapine, NOS was also assayed with several other BIAs that could potentially serve as substrates for dehydrogenase/reductase reactions.

COc1ccc2c(c1OC)C[N+]1(C)CCc3cc4c(c(O)c3C1C2OC(C)=O)OCO4 [(S)-1-hydroxy-13-O-acetyl-N-methylcanadine]
conversion as substrate by CYP82X2 (CYP82X2): showed no activity | conversion as substrate by CYP82X1 (CYP82X1): converting (S)-1-hydroxy-13-O-acetyl-N-methylcanadine (m/z 428) to (S)-1,8-dihydroxy-13-O-acetyl-N-methylcanadine

COc1ccc2c(c1OC)C[N+]1(C)CCc3cc4c(c(O)c3C1C2)OCO4 [(S)-1-hydroxy-N-methylcanadine]
conversion as substrate by CYP82X2 (CYP82X2): yielding (S)-1,13-dihydroxy-N-methylcanadine | conversion as substrate by CYP82X1 (CYP82X1): 4-O-demethylmacrantaldehyde

COc1ccc2c(c1OC)C[N+]1(C)CCc3cc4c(cc3C1C2)OCO4 [(S)—N-methylcanadine]
conversion as substrate by CYP82Y1 (CYP82Y1): yielding 1-hydroxy-N-methylcanadine

C[N@@+]12CCc3cc4c(cc3[C@@H]1Cc1ccc3c(c1C2)OCO3)OCO4 [N-methylstylopine, reference compound]
conversion as substrate by CYP82Y1 (CYP82Y1): give rise to 1-hydroxy-N-methylstylopine

NC(=O)c1ccc[n+]([C@@H]2O[C@H](COP(=O)([O-])OP(=O)(O)OC[C@H]3O[C@@H](n4cnc5c(N)ncnc54)[C@H](OP(=O)(O)O)[C@@H]3O)[C@@H](O)[C@H]2O)c1 [NADP^+]
Km (NOS): 1250 µM

NC(=O)c1ccc[n+]([C@@H]2O[C@H](COP(=O)([O-])OP(=O)(O)OC[C@H]3O[C@@H](n4cnc5c(N)ncnc54)[C@H](O)[C@@H]3O)[C@@H](O)[C@H]2O)c1 [NAD^+]
Km (NOS): 33.1 µM

COc1ccc2c3c1O[C@H]1[C@@H](O)C=C[C@H]4[C@@H](C2)N(C)CC[C@@]341 [codeine]
acceptance as substrate / conversion by NOS (NOS): none were accepted by NOS

COc1ccc2c3c1O[C@H]1C(=O)C=C[C@H]4[C@@H](C2)N(C)CC[C@]314 [codeinone]
acceptance as substrate / conversion by NOS (NOS): none were accepted by NOS

COc1ccc2c(c1OC)C(O)OC2C1c2c(cc3c(c2OC)OCO3)CCN1C (stereo not drawn) [narcotine hemiacetal]
affinity of NOS for the alkaloid substrate and corresponding catalytic efficiency (NOS; in the presence of NAD^+ compared with NADP^+ as the cofactor): significantly higher | acceptance as substrate / conversion by NOS (NOS): able to oxidize the hydroxyl group on the hemiacetal ring

COc1ccc2c(c1OC)C(O)O[C@@H]2[C@H]1c2c(cc3c(c2O)OCO3)CCN1C (stereo partly drawn) [narcotoline hemiacetal]
acceptance as substrate / conversion by NOS (NOS): yielded a new compound consistent with narcotoline

COC1=C[C@]23CCN(C)[C@H](Cc4ccc(OC)c(O)c42)C3=CC1=O [salutaridine]
acceptance as substrate / conversion by NOS (NOS): none were accepted by NOS

c1cc2c(c3c1C[C@H]1c4cc5c(cc4CCN1C3)OCO5)OCO2 [stylopine]
acceptance as substrate / conversion by NOS (NOS): none were accepted by NOS
